Laboratory results from patent US20030203864A1, “Treatment of cancer” (priority 2002, published 2003).
Entries after “also recorded” stand apart in the source; their conditions may differ. [invdT] = inverted (3'-3') thymidine

Assays:
NGFI-A protein = test: Western blot of NGFI-A protein in SMCs; assay type: cell-based, rat; conditions: 5% FBS 1 h
Procedure: Culture conditions and DNAzyme transfection. Primary rat aortic SMCs were obtained from Cell Applications, Inc., and grown in Waymouth's medium, pH 7.4, containing 10% fetal bovine serum (FBS), 50 μg/ml streptomycin and 50 IU/ml penicillin at 37° C. in a humidified atmosphere of 5% CO2 SMCs were used in experiments between passages 3-7. Pup rat SMCs (WKY12-22 (as described in Lernire et al, 1994, the entire contents of which are incorporated herein by reference)) were grown under similar conditions. Subconfluent (60-70%) SMCs were incubated in serum-free medium (SFM) for 6 h prior to DNAzyme (or antisense ODN, where indicated) transfection (0.1 μM) using Superfect in accordance with manufacturer's instructions (Qiagen). After 18 h, the cells were washed with phosphate-buffered saline (PBS), pH 7.4 prior to transfection a second time in 5% FBS.
Western blot analysis. Growth-quiescent SMCs in 100 mm plates (Nunc-InterMed) were transfected with ED5 or ED5SCR as above, and incubated with 5% FBS for 1 h. The cells were washed in cold PBS, pH 7.4, and extracted in 150 mM NaCl, 50 mM Tris-HCI, pH 7.5, […], 0.1% SDS, 1% Triton X-100, 5 mM EDTA, 1% trasylol, 10μ/ml leupeptin, 1% aprotinin and 2 mM PMSF. Twenty four μg protein samples were loaded onto 10% denaturing SDS-polyacrylamide gels and electroblotted onto PVDF nylon membranes (NEN-DuPont). […]

HMEC-1 cells = test: HMEC-1 proliferation assay (Coulter counter); assay type: cell-based, human; conditions: 0.4 μM DNA enzyme
Procedure: HMEC-1 culture and proliferation assay. SV40-transformed HMEC-1 cells were grown in MCDB 131 medium with EGF (10 ng/ml) and hydrocortisone (1 μg/ml) supplements and 10% FBS. […] The cells were quantitated by Coulter counter, 24 h after the addition of serum.

EGR-1 = test: Western blot of EGR-1 in HepG2 cells; assay type: cell-based, human
Chain of EGR-1 (P18146 whole entry, the tested form may be a part): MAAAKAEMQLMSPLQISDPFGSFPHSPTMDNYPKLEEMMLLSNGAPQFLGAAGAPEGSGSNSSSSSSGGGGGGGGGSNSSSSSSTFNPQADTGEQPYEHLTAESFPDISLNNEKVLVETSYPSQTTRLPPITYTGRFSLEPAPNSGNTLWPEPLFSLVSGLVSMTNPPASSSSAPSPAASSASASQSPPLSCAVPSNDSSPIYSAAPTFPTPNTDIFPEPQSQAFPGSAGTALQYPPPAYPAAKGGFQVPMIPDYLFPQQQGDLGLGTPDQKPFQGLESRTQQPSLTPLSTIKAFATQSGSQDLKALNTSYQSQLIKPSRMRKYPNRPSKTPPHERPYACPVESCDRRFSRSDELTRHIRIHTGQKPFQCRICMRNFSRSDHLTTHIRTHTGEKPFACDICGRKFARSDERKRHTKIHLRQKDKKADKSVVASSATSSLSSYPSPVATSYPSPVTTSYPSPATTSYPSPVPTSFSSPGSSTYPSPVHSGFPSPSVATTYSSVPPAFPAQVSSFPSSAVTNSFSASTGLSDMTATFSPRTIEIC

HepG2 cells = test: HepG2 cell proliferation (Coulter counter); assay type: cell-based, human; conditions: 0.75 μM DNAzyme, 5% FBS, 3 days
Procedure: HepG2 cells were routinely grown in DMEM, pH 7.4, containing 10% fetal calf serum supplemented with antibiotics. The cells were trypsinized, resuspended in growth medium (to 10,000 cells/200 μl) and 200 μl transferred into sterile 96 well titre plates. Two days subsequently, 180 μl of the culture supernatant was removed, the cells were washed with PBS, pH 7.4, and refed with 180 μl of serum free media. After 6 h, the first transfection of DNAzyme (2 μg/200 μl wall, 0.75 μM final) was performed in tubes containing serum free media using FuGENE6 at a ratio of 1:3 (μg:μl). After 15 min incubation at room temperature, 180 μl of the culture supernantant was replaced with 180 μl of the transfection mix, After 24 h, 180 μl of the supernatant was replaced with 180 μl of new transfection mix, but this time in 5% FBS media. After 3 days, the cells were washed in PBS, pH 7.4, and resuspended by trypsinization in 100 μl trypsin-EDTA. The cells were shaken for approximately 5 min to ensure the cells were in suspension. The entire suspension was placed into 10 ml of Isoton II. That all the cells were transferred was ensured by pipetting Isoton II solution from tubes back into wells several times. Using Isoton II only, background cell number was determined. Each sample was counted three times and used to calculate mean counts and standard errors of each mean.

Substance	serum-induction of NGFI-A protein (NGFI-A protein)	HMEC-1 replication (total cell counts) (HMEC-1 cells)	EGR-1 expression in HepG2 cells (EGR-1)	serum-stimulated HepG2 cell proliferation (HepG2 cells)
EDC: DNAzyme with identical catalytic domain flanked by nonsense arms, 5′-CGCCATTAGGCTAGCTACAACGACCTAGTGAT-3′; 3′T inverted (DNA CGCCATTAGGCTAGCTACAACGACCTAGTGA; DNA, [invdT] at 3' end, backbone not given here)	neither ED5SCR nor EDC, a DNAzyme bearing an identical catalytic domain as ED5 and ED5SCR but flanked by nonsense arms had any influence	–	–	–
DzA: DNAzyme targeting human EGR-1 mRNA (arms hybridize to nts 189-207), 5′-caggggacaGGCTAGCTACAACGAcgttgcggg (DNA CAGGGGACAGGCTAGCTACAACGACGTTGCGGG; DNA, backbone and methylation of C not given here)	–	inhibited	strongly inhibited	almost completely suppressed; also recorded: inhibited
